In the supplement of paper PMC11061612:

Tests used:
Test in all cases: Bliss excess, mean over the matrix (fraction); higher = more synergy
[1] = tested on: KYAE-1 (Esophageal Adenocarcinoma)
Method in brief: (§1)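 Bliss excess equals the observed combination effect minus the expected value EA + EB − EA·EB, where EA and EB are the effects of each agent alone. Combination Emax is the second-highest inhibition within the matrix. Inhibition was scaled from CellTiter-Glo 2.0 luminescence, with 0 set by vehicle wells and 1 by blank wells, after 72 hours of two-drug dosing of cells plated in 1536-well plates.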

[2] = tested on: KS-1 (Glioblastoma)
Method in brief: as §1

[3] = tested on: HuH-7 (Hepatocellular Carcinoma)
Method in brief: as §1

[4] = tested on: BE2-M17 (Neuroblastoma)
Method in brief: as §1

[5] = tested on: CAL-33 (Oral Cavity Carcinoma)
Method in brief: as §1

[6] = tested on: OVCAR-5 (Ovarian Carcinoma)
Method in brief: as §1

[7] = tested on: HeLa (Cervical Carcinoma)
Method in brief: as §1

[8] = tested on: BE-13 (T-Lymphoblastic Leukemia)
Method in brief: as §1

[9] = tested on: OV-56 (Ovarian Carcinoma)
Method in brief: as §1

[10] = tested on: LCLC-97TM1 (Non-Small Cell Lung Carcinoma)
Method in brief: as §1

[11] = tested on: LNZTA3WT4 (Low Grade Glioma)
Method in brief: as §1

[12] = tested on: ESS-1 (Other Solid Carcinomas)
Method in brief: as §1

[13] = tested on: MHH-CALL-2 (B-Lymphoblastic Leukemia)
Method in brief: as §1

[14] = tested on: KMRC-20 (Kidney Carcinoma)
Method in brief: as §1

[15] = tested on: LOXIMVI (Melanoma)
Method in brief: as §1

[16] = tested on: NCI-H209 (Small Cell Lung Carcinoma)
Method in brief: as §1

[17] = tested on: L-428 (Hodgkin's Lymphoma)
Method in brief: as §1

[18] = tested on: NCI-H1568 (Lung Adenocarcinoma)
Method in brief: as §1

[19] = tested on: LS-123 (Colorectal Carcinoma)
Method in brief: as §1

[20] = tested on: CAL-72 (Osteosarcoma)
Method in brief: as §1

SMILES	Bliss excess [1]	Bliss excess [2]	Bliss excess [3]	Bliss excess [4]	Bliss excess [5]	Bliss excess [6]	Bliss excess [7]	Bliss excess [8]	Bliss excess [9]	Bliss excess [10]	Bliss excess [11]	Bliss excess [12]	Bliss excess [13]	Bliss excess [14]	Bliss excess [15]	Bliss excess [16]	Bliss excess [17]	Bliss excess [18]	Bliss excess [19]	Bliss excess [20]
CN(CCO)CC[C@H](CSc1ccccc1)Nc1ccc(S(=O)(=O)NC(=O)c2ccc(N3CCC([C@@H](O)c4ccccc4-c4ccc(Cl)cc4)CC3)cc2)cc1S(=O)(=O)C(F)(F)F [AZD4320] + C[C@@H](Nc1cc(F)cc(F)c1)c1cc(C(=O)N(C)C)cc2c(=O)cc(N3CCOCC3)oc12 [AZD8186] (first compound max 1 µM, 7x7, partner max 3 µM)	0.011	-0.0166	0.0262	0.0115	-0.0039	-0.0133	0.0156	-0.0065	-0.0031	-0.014	-0.0197	-0.01	0.042	0.0459	-0.0239	0.0529	0.0393	-0.0013	–	–
C=CCn1c(=O)c2cnc(Nc3ccc(N4CCN(C)CC4)cc3)nc2n1-c1cccc(C(C)(C)O)n1 [AZD1775] + C1CN(CCC1(C(=O)N[C@@H](CCO)C2=CC=C(C=C2)Cl)N)C3=NC=NC4=C3C=CN4 [Capivasertib] (first compound max 3 µM, partner max 3 µM)	-0.0284	-0.0126	0.0263	-0.0406	0.066	-0.0923	-0.0168	-0.0508	-0.0263	-0.0545	-0.0111	-0.0251	0.029	-0.0646	0.0764	–	-0.0138	-0.0572	-0.0341	0.0259
CN(CCO)CC[C@H](CSc1ccccc1)Nc1ccc(S(=O)(=O)NC(=O)c2ccc(N3CCC([C@@H](O)c4ccccc4-c4ccc(Cl)cc4)CC3)cc2)cc1S(=O)(=O)C(F)(F)F [AZD4320] + C1CN(CCC1(C(=O)N[C@@H](CCO)C2=CC=C(C=C2)Cl)N)C3=NC=NC4=C3C=CN4 [Capivasertib] (first compound max 1 µM, 7x7, partner max 3 µM)	-0.031	-0.0435	-0.0402	0.006	-0.0424	-0.0487	-0.0377	-0.0175	-0.0243	-0.0048	-0.0176	0.0028	-0.0126	-0.0546	-0.0189	-0.0057	-0.0146	-0.0518	–	-0.0184
CN(CCO)CC[C@H](CSc1ccccc1)Nc1ccc(S(=O)(=O)NC(=O)c2ccc(N3CCC([C@@H](O)c4ccccc4-c4ccc(Cl)cc4)CC3)cc2)cc1S(=O)(=O)C(F)(F)F [AZD4320] + Cn1cnc2c(F)c(Nc3ccc(Br)cc3Cl)c(C(=O)NOCCO)cc21 [Selumetinib] (first compound max 1 µM, 7x7, partner max 3 µM)	-0.0146	-0.0051	0.0069	0.0929	0.0749	-0.0282	-0.0092	-0.0017	-0.0063	0.0523	-0.0656	-0.0507	0.298	0.0022	0.0352	-0.0215	0.0143	-0.0035	–	-0.0089
CCN(CCO)CCCOc1ccc2c(Nc3cc(CC(=O)Nc4cccc(F)c4)[nH]n3)ncnc2c1 [AZD2811] + O=C(c1cc(Cc2n[nH]c(=O)c3ccccc23)ccc1F)N1CCN(C(=O)C2CC2)CC1 [Olaparib] (first compound max 1 µM, 7x7, partner max 10 µM)	0.0093	0.0053	-0.072	0.0317	0.0044	-0.0048	-0.0154	-0.0163	-0.0081	0.0148	-0.0005	0.021	–	0.0017	0.0073	0.0418	0.0277	-0.0472	0.0144	0.0343
Cc1c2c(nn1C)CSCc1cc(n(C)n1)CSc1cc(c3ccccc3c1)OCCCc1c(C(=O)O)n(C)c3c-2c(Cl)ccc13 [AZD5991] + Cc1cc2ncnn2cc1Nc1ncc2c(n1)n(C1CCOCC1)c(=O)n2C [AZD7648] (first compound max 1 µM, 7x7, partner max 10 µM)	-0.0285	-0.0797	-0.0408	-0.0159	-0.0341	-0.0913	0.0021	0.0066	-0.0059	-0.0015	-0.0144	-0.0292	-0.011	-0.0036	0.0193	–	0.0455	-0.0717	-0.0378	-0.0475
Cc1c2c(nn1C)CSCc1cc(n(C)n1)CSc1cc(c3ccccc3c1)OCCCc1c(C(=O)O)n(C)c3c-2c(Cl)ccc13 [AZD5991] + CCN(CCO)CCCOc1ccc2c(Nc3cc(CC(=O)Nc4cccc(F)c4)[nH]n3)ncnc2c1 [AZD2811] (first compound max 1 µM, 7x7, partner max 1 µM)	0.0422	-0.0459	0.0109	0.0668	0.0153	-0.0434	0.0319	0.0225	0.0421	0.0885	0.038	-0.0014	0.0503	0.0023	0.0212	0.191	0.0712	-0.0051	–	0.0582
COc1cccc(OCCCN)c1-c1cc(Nc2cnc(C#N)cn2)n[nH]1 [Prexasertib] + O=C(c1cc(Cc2n[nH]c(=O)c3ccccc23)ccc1F)N1CCN(C(=O)C2CC2)CC1 [Olaparib] (first compound max 1 µM, 7x7, partner max 10 µM)	0.0116	-0.0439	-0.0527	-0.0225	-0.012	-0.17	-0.0483	-0.0341	-0.0739	-0.0381	-0.0274	0.0054	–	-0.0735	-0.0372	-0.0442	-0.0418	-0.0593	-0.0312	-0.135
CN(C)CCCOc1ccc(-c2ccc3ncc4c(c3c2)n(C2CCOCC2)c(=O)n4C)cn1 [AZD0156] + CCN(CCO)CCCOc1ccc2c(Nc3cc(CC(=O)Nc4cccc(F)c4)[nH]n3)ncnc2c1 [AZD2811] (first compound max 1 µM, 7x7, partner max 1 µM)	-0.0154	0.0228	-0.0381	0.0535	-0.0139	-0.0281	-0.0136	-0.0908	-0.0176	0.0765	-0.0162	0.0179	–	-0.0499	-0.0125	0.0922	0.0314	-0.0376	-0.0409	-0.0213
CCN(CCO)CCCOc1ccc2c(Nc3cc(CC(=O)Nc4cccc(F)c4)[nH]n3)ncnc2c1 [AZD2811] + C[C@@H]1COCCN1C2=NC(=NC(=C2)C3(CC3)[S@](=N)(=O)C)C4=C5C=CNC5=NC=C4 [AZD6738] (first compound max 1 µM, 7x7, partner max 10 µM)	-0.0234	-0.0711	-0.0453	0.0002	-0.0199	-0.0429	-0.0743	-0.148	-0.11	0.0116	-0.0315	-0.018	–	-0.0667	-0.0763	0.0731	0.0145	-0.0514	-0.0258	-0.0863
CCN(CCO)CCCOc1ccc2c(Nc3cc(CC(=O)Nc4cccc(F)c4)[nH]n3)ncnc2c1 [AZD2811] + C=CCn1c(=O)c2cnc(Nc3ccc(N4CCN(C)CC4)cc3)nc2n1-c1cccc(C(C)(C)O)n1 [AZD1775] (first compound max 1 µM, partner max 1 µM)	-0.0176	0.0223	-0.0232	0.0436	-0.0365	-0.0616	0.0278	-0.0298	-0.0152	0.033	-0.0501	0.042	–	-0.0562	0.0351	0.089	0.0106	-0.0301	-0.0373	-0.0866
COc1cccc(OCCCN)c1-c1cc(Nc2cnc(C#N)cn2)n[nH]1 [Prexasertib] + Cc1cc2ncnn2cc1Nc1ncc2c(n1)n(C1CCOCC1)c(=O)n2C [AZD7648] (first compound max 1 µM, 7x7, partner max 10 µM)	0.0382	0.0198	-0.0199	0.0047	0.0099	-0.0016	0.0133	0.0364	-0.0467	-0.0411	-0.064	-0.0296	–	-0.0474	0.0017	0	-0.0165	-0.0303	-0.0141	-0.112
CCc1c2c(nc3ccc(O)cc13)-c1cc3c(c(=O)n1C2)COC(=O)[C@]3(O)CC [SN-38] + CN(C)CCCOc1ccc(-c2ccc3ncc4c(c3c2)n(C2CCOCC2)c(=O)n4C)cn1 [AZD0156] (first compound max 0.3 µM, 7x7, partner max 1 µM)	-0.0188	-0.0369	0	-0.0073	0.0579	-0.0235	0.0255	-0.103	0.0154	-0.0059	0.0092	0.0109	–	-0.0156	0.0017	-0.0073	-0.0558	-0.0078	-0.0648	0.0114
CN(CCO)CC[C@H](CSc1ccccc1)Nc1ccc(S(=O)(=O)NC(=O)c2ccc(N3CCC([C@@H](O)c4ccccc4-c4ccc(Cl)cc4)CC3)cc2)cc1S(=O)(=O)C(F)(F)F [AZD4320] + C=CCn1c(=O)c2cnc(Nc3ccc(N4CCN(C)CC4)cc3)nc2n1-c1cccc(C(C)(C)O)n1 [AZD1775] (first compound max 1 µM, partner max 1 µM)	0.032	0.0327	0.0346	0.0199	-0.0266	–	-0.0523	0.046	-0.0113	0.0015	-0.0201	0.002	0.14	0.0331	0.0203	0.0963	0.0961	0.0492	–	0.0392
